A short description of series [1]: Solubility was determined. It is filed as physicochemical.
Series [2] is described as follows: Percent of the mice tested that exhibited toxicity after a dose of 150 mg/kg. It counts as organism-based. More on the design: dose 150 mg/kg. Particulars: mouse, in vivo.

The term solubility denotes the concentration that dissolves in the medium under given conditions. Lower therefore signals little dissolved substance.

In series [1], `COc1ccc(/C=C\c2cc(OC)c(OC)c(OC)c2)cc1O.N` came in with a solubility of about 2800 µg/mL.

Molecule `COc1ccc(/C=C\c2cc(OC)c(OC)c(OC)c2)cc1[O-].[K+]` had an Activity in series [2] of 60%.
